From patent US20230257480A1, “ENHANCING BLOOD-BRAIN BARRIER DRUG TRANSPORT BY TARGETING ENDOGENOUS REGULATORS” (THE BOARD OF TRUSTEES OF THE LELAND STANFORD JUNIOR …, priority 2019, published 2023)

Test system: brain parenchymal cells
Experiment: Flow cytometry of brain parenchymal (CD31-/CD45-) cell uptake of tracer after ALPL inhibitor treatment
Type: in vivo, mice
Details: vs vehicle
From the text: FIG. 12A is a dot plot representation of cell-surface, druggable gene candidates on brain endothelial cells. Genes were plotted by their degree of blood-brain barrier specificity (Daneman et al., PLoS One (2010). doi:10.1371/journal.pone.0013741) and correlation with plasma uptake. Genes were colored by their upregulation (brown) or downregulation (green) with age. FIG. 12B includes representative images of calcified nodules (Alizarin red staining) detected in aged (23 m.o.—bottom panel) but not young (3 m.o.—top panel) mice, recapitulating nodules seen in pericyte-deficient Pdgfbret/ret mice (Keller et al., Nat. Genet. (2013). doi:10.1038/ng.2723) (representative image of n=5 mice per age). FIG. 12C includes representative images of Type I Collagen expression (green) in Lectin^+ vasculature (red) in the cerebral cortex of young (3 m.o.—left panels) and aged (23 m.o.—right panels) mice. Scale bar=40 microns. FIG. 12D includes representative images of ALPL expression (yellow) in AQP4^+ vasculature (purple) in the cerebral cortex of young (3 m.o.—left panels) and aged (23 m.o.—right panels) mice. Scale bar=40 microns. FIG. 12E is a graph illustrating quantification of ALPL expression in the cerebral cortex vasculature of young (3 m.o.) and aged (23 m.o.) mice (n=7, two-sided t-test; mean+/−s.e.m.). FIG. 12F is a schematic diagram illustrating cerebrovascular ALPL inhibition. Aged (22 m.o.) mice were injected intraperitoneally with vehicle or ALPL inhibitor twice a day for three days before intravenous injection of plasma, human holotransferrin, or transferrin receptor antibody. Uptake in the brain endothelium and parenchyma was assessed by flow cytometry and confocal microscopy of the cortex and hippocampus. FIG. 12G includes representative images of ectopic ALPL activity (red) in the cerebral cortex vasculature of aged (22 m.o.) mice treated with ALPL inhibitor (anti-ALPL) or vehicle and in young (3 m.o.) mice. FIG. 12H is a graph illustrating quantification of ALPL activity in the cerebral cortex vasculature of aged (22 m.o.) mice treated with ALPL inhibitor (anti-ALPL) or vehicle and in young (3 m.o.) mice (n=6-9, one-way ANOVA with Tukey's multiple comparisons correction; mean+/−s.e.m.). FIGS. 12I-12L include graphs illustrating flow cytometry quantification of brain parenchymal (CD31−/CD45−) cell uptake of plasma in aged (22 m.o.) mice (FIG. 12I); plasma in young (3 m.o.) mice (FIG. 12J); human holo-transferrin (hu-Tf) in aged (22 m.o.) mice (FIG. 12K); or transferrin receptor antibody (TfR Ab) in aged (22 m.o.) mice (FIG. 12L) after ALPL inhibitor (anti-ALPL) and vehicle treatment, as assessed by the percent (%) of parenchymal cells that are tracer^+ and the relative mean fluorescence intensity (MFI) of tracer^+ parenchymal cells (for plasma, n=4; for hu-Tf, n=5-6; for TfR Ab, n=9, two-sided t-test; mean+/−s.e.m.). Tracer refers to plasma, hu-Tf, or TfR Ab FIG. 12M includes representative images of transferrin receptor antibody (TfR Ab) in the cortical vasculature (red) and parenchymal cells of ALPL inhibitor-treated aged (22 m.o.) mice. Arrowheads indicate TfR Ab^+ NeuN neurons. Scale bar=40 microns (left) and 10 microns (right). Data were replicated in at least 2 independent experiments.
CNS cell isolation adopted previously described methods42,139,140. Briefly, cortices and hippocampi were microdissected, minced, and digested using the Neural Dissociation Kit (Miltenyi). Suspensions were filtered through a 100 μm strainer and myelin removed by centrifugation in 0.9 M sucrose. The remaining myelin-depleted cell suspension was blocked for ten minutes with Fc preblock (CD16/CD32, BD 553141) on ice and stained for 30 minutes with antibodies to distinguish brain endothelial cells (CD31+/CD45−), astrocytes (ACSA-2+), and neurons (NeuN+ or CD90.2/Thy1.2+). For analysis of plasma uptake, at least 1,000 cells of each population of interest were analyzed per sample. […]

For `COc1ccc(OC)c(S(=O)(=O)Nc2cnc3ccccc3c2)c1` [ALPL inhibitor, 2,5-Dimethoxy-N-(quinolin-3-yl)benzenesulfonamide], the “parenchymal uptake of transferrin receptor antibody” value (aged (22 m.o.) mice, TfR Ab 20 mg/kg i.v.) was “increased”, the “parenchymal uptake of human holo-transferrin” value (aged (22 m.o.) mice, hu-Tf 40 mg/kg i.v.) was “increased” and the “amount of plasma taken up by participating cells” value (aged mice, parenchymal cells (MFI)) was “increased”. For the same molecule, the “percentage of plasma+ cells” value (aged mice, parenchymal cells) was “did not change”, the “plasma transport across the endothelium to brain parenchymal cells” value (aged mice) was “increased” and the “plasma transcytosis across the young BBB to the parenchyma” value (young (3 m.o.) mice) was “did not significantly enhance”.
